Like-named read-outs stand apart in the source and are kept apart here.
Tests used:
[1] = tested on: MV4:11 human cancer cell lines; assay: Anti-proliferative activity, CellTiter-Glo viability assay, 7 day protocol; format: cell-based; conditions: MV4:11 cells, 7 day incubation, read-out: GI50 on cellular proliferation of MV4:11 human cancer cell lines
Summary of the method: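 MV4:11 cells seeded at 3600 cells/ml and exposed to compounds for 7 days, 0.1% DMSO final. Viability measured by CellTiter-Glo luminescence. GI50 from three biological replicates, each in technical triplicate, given as mean ± S.E.M.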

[2] = molecular target: WDR5 (Homo sapiens (Human), UniProt P61964); assay: TR-FRET binding assay (displacement of 10mer-Thr-FAM probe from WDR5)
[3] = read-out: Ki for Inhibition of WDR5 by TR-FRET assay
[4] = read-out: Ki for Inhibition of WDR5 by TR-FRET assay, TR-FRET, 10mer-Thr-FAM probe, WDR5-His tag 2 nM, pH 7.0

Q: With `CCOC(=O)/N=c1\n(C)ccn1Cc1cc(C(=O)NCc2ccc(Cl)c(Cl)c2)cc(-c2ccc(F)nc2C)c1` [Example 122, Ethyl (1-(3-((3,4-dichlorobenzyl)carbamoyl)-5-(6-fluoro-2-methylpyridin-3-yl)benzyl)-3-methyl-1,3-dihydro-2H-imidazol-2-ylidene)carbamate] as the compound, how does the GI50 ([1]; Homo sapiens, MV4-11, 168 h) read?
A: 4200 nM

Q: What about the Ki [2, 3] of the same compound?
A: > 33 nM

Q: `Cc1cc([C@@H](NC(=O)c2cc(Cn3ccn(C)c3=N)cc(-c3cn(C)nc3C(F)(F)F)c2)C2CC2)ccc1F` [Example 125, (S)—N-(Cyclopropyl(4-fluoro-3-methylphenyl)methyl)-3-((2-imino-3-methyl-2,3-dihydro-1H-imidazol-1-yl)methyl)-5-(1-methyl-3-(trifluoromethyl)-1H-pyrazol-4-yl)benzamide] was tested. Which GI50 ([1]; Homo sapiens, MV4-11, 168 h) did it give?
A: 180 nM

Q: And the Ki [2]?
A: < 0.1 nM

Q: Which GI50 ([1]; Homo sapiens, MV4-11, 168 h) does the source give for `Cc1cc([C@@H](NC(=O)c2cc(Cn3ccn(C)c3=N)cc(-c3cccnc3OC(F)F)c2)C2CC2)ccc1F` [Example 127, (S)—N-(Cyclopropyl(4-fluoro-3-methylphenyl)methyl)-3-(2-(difluoromethoxy)pyridin-3-yl)-5-((2-imino-3-methyl-2,3-dihydro-1H-imidazol-1-yl)methyl)benzamide] here?
A: 730 nM

Q: What about the Ki [2, 4] of the same compound?
A: 0.21 nM

Q: What does the source list for `Cc1cc([C@@H](NC(=O)c2cc(Cn3ccn(C)c3=N)cc(-c3cccnc3C(F)(F)F)c2F)C2CC2)ccc1F` [Example 131, (S)—N-(Cyclopropyl(4-fluoro-3-methylphenyl)methyl)-2-fluoro-5-((2-imino-3-methyl-2,3-dihydro-1H-imidazol-1-yl)methyl)-3-(2-(trifluoromethyl)pyridin-3-yl)benzamide]?
A: GI50 ([1]; Homo sapiens, MV4-11, 168 h): 140 nM; Ki [2, 4]: < 0.1 nM

Q: With `Cc1ccnc([C@@H](NC(=O)c2cc(Cn3ccn(C)c3=N)cc(-c3cccnc3C(F)(F)F)c2F)C2CC2)c1` [Example 132, (S)—N-(Cyclopropyl(4-methylpyridin-2-yl)methyl)-2-fluoro-5-((2-imino-3-methyl-2,3-dihydro-1H-imidazol-1-yl)methyl)-3-(2-(trifluoromethyl)pyridin-3-yl)benzamide] as the compound, how does the GI50 ([1]; Homo sapiens, MV4-11, 168 h) read?
A: 610 nM

Q: What about the Ki [2, 4] of the same compound?
A: 0.13 nM

Q: Which GI50 ([1]; Homo sapiens, MV4-11, 168 h) does the source give for `Cc1cc([C@@H](NC(=O)c2cc(Cn3ccn(C)c3=N)cc(C3CC3)c2)C2CC2)ccc1F` [Example 139, (S)-3-Cyclopropyl-N-(cyclopropyl(4-fluoro-3-methylphenyl)methyl)-5-((2-imino-3-methyl-2,3-dihydro-1H-imidazol-1-yl)methyl)benzamide] here?
A: 730 nM

Q: And the Ki [2, 3]?
A: 0.18 nM

Q: Which results are given for `Cc1cc([C@@H](NC(=O)c2cc(Cn3ccn(C4CC4)c3=N)cc(-c3ccc(F)cc3Cl)c2)C2CC2)ccc1F` [Example 141, (S)-2′-Chloro-N-(cyclopropyl(4-fluoro-3-methylphenyl)methyl)-5-((3-cyclopropyl-2-imino-2,3-dihydro-1H-imidazol-1-yl)methyl)-4′-fluoro-[1,1′-biphenyl]-3-carboxamide]?
A: GI50 ([1]; Homo sapiens, MV4-11, 168 h): < 100 nM; Ki [2, 4]: < 0.1 nM

Q: Which results are given for `Cc1cc([C@@H](NC(=O)c2cc(Cn3ccn(C4CC4)c3=N)cc(-c3cn(C)nc3C(F)(F)F)c2)C2CC2)ccc1F` [Example 142, (S)—N-(Cyclopropyl(4-fluoro-3-methylphenyl)methyl)-3-((3-cyclopropyl-2-imino-2,3-dihydro-1H-imidazol-1-yl)methyl)-5-(1-methyl-3-(trifluoromethyl)-1H-pyrazol-4-yl)benzamide]?
A: GI50 ([1]; Homo sapiens, MV4-11, 168 h): < 100 nM; Ki [2, 4]: < 0.1 nM

Q: Which results are given for `Cc1cc([C@@H](NC(=O)c2cc(CN3CCN(C)C3=N)cc(-c3cccnc3C(F)(F)F)c2)C2CC2)ccc1F` [Example 143, (S)—N-(Cyclopropyl(4-fluoro-3-methylphenyl)methyl)-3-((2-imino-3-methylimidazolidin-1-yl)methyl)-5-(2-(trifluoromethyl)pyridin-3-yl)benzamide]?
A: GI50 ([1]; Homo sapiens, MV4-11, 168 h): 170 nM; Ki [2, 3]: < 0.1 nM

Q: Which results are given for `Cc1cc(CNC(=O)c2cc(Cn3ccn(C)c3=N)cc(OC(F)(F)F)c2)ccc1Cl` [Example 147, N-(4-Chloro-3-methylbenzyl)-3-((2-imino-3-methyl-2,3-dihydro-1H-imidazol-1-yl)methyl)-5-(trifluoromethoxy)benzamide]?
A: GI50 ([1]; Homo sapiens, MV4-11, 168 h): 840 nM; Ki [2, 4]: 0.37 nM

Q: Which results are given for `Cc1cc([C@@H](NC(=O)c2cc(Cn3ccn(C)c3=N)cc(-c3ccc(F)cc3C(F)F)c2)C2CC2)ccc1F` [Example 154, (S)—N-(Cyclopropyl(4-fluoro-3-methylphenyl)methyl)-2′-(difluoromethyl)-4′-fluoro-5-((2-imino-3-methyl-2,3-dihydro-1H-imidazol-1-yl)methyl)-[1,1′-biphenyl]-3-carboxamide]?
A: GI50 ([1]; Homo sapiens, MV4-11, 168 h): 120 nM; Ki [2, 4]: < 0.1 nM

Q: How did the GI50 ([1]; Homo sapiens, MV4-11, 168 h) turn out when `Cc1cc([C@@H](NC(=O)c2cc(Cn3ccn(C4CC4)c3=N)cc(-c3ccc(F)cc3OC(F)F)c2)C2CC2)ccc1F` [Example 156, (S)—N-(cyclopropyl(4-fluoro-3-methylphenyl)methyl)-5-((3-cyclopropyl-2-imino-2,3-dihydro-1H-imidazol-1-yl)methyl)-2′-(difluoromethoxy)-4′-fluoro-[1,1′-biphenyl]-3-carboxamide] was run?
A: 470 nM

Q: And the Ki [2, 4]?
A: < 0.1 nM

Q: Which results are given for `Cn1cc(-c2cc(Cn3ccn(C)c3=N)cc(C(=O)N[C@H](c3ccc(Cl)c(Cl)c3)C3CC3)c2)c(C(F)(F)F)n1` [Example 157, (S)—N-(Cyclopropyl(3,4-dichlorophenyl)methyl)-3-((2-imino-3-methyl-2,3-dihydro-1H-imidazol-1-yl)methyl)-5-(1-methyl-3-(trifluoromethyl)-1H-pyrazol-4-yl)benzamide]?
A: GI50 [1]: 100 nM; Ki [2, 4]: < 0.1 nM

Q: With `Cc1cc([C@@H](NC(=O)c2cc(Cn3ccn(C4CC4)c3=N)cc(-c3ccc(F)cc3C(F)F)c2)C2CC2)ccc1F` [Example 158, (S)—N-(Cyclopropyl(4-fluoro-3-methylphenyl)methyl)-5-((3-cyclopropyl-2-imino-2,3-dihydro-1H-imidazol-1-yl)methyl)-2′-(difluoromethyl)-4′-fluoro-[1,1′-biphenyl]-3-carboxamide] as the compound, how does the GI50 ([1]; Homo sapiens, MV4-11, 168 h) read?
A: 170 nM

Q: What about the Ki [2, 4] of the same compound?
A: < 0.1 nM

Q: Which GI50 ([1]; Homo sapiens, MV4-11, 168 h) does the source give for `Cn1cc(-c2cc(Cn3ccn(C4CC4)c3=N)cc(C(=O)N[C@H](c3ccc(Cl)c(Cl)c3)C3CC3)c2)c(C(F)(F)F)n1` [Example 159, (S)—N-(cyclopropyl(3,4-dichlorophenyl)methyl)-3-((3-cyclopropyl-2-imino-2,3-dihydro-1H-imidazol-1-yl)methyl)-5-(1-methyl-3-(trifluoromethyl)-1H-pyrazol-4-yl)benzamide] here?
A: 190 nM

Q: And the Ki [2, 4]?
A: < 0.1 nM

Q: With `CCn1cc(-c2cc(Cn3ccn(C4CC4)c3=N)cc(C(=O)N[C@H](c3ccc(F)c(C)c3)C3CC3)c2)c(C(F)(F)F)n1` [Example 160, (S)—N-(Cyclopropyl(4-fluoro-3-methylphenyl)methyl)-3-((3-cyclopropyl-2-imino-2,3-dihydro-1H-imidazol-1-yl)methyl)-5-(1-ethyl-3-(trifluoromethyl)-1H-pyrazol-4-yl)benzamide] as the compound, how does the GI50 ([1]; Homo sapiens, MV4-11, 168 h) read?
A: < 100 nM

Q: And the Ki [2, 4]?
A: < 0.1 nM

Q: For `CCn1cc(-c2cc(Cn3ccn(C)c3=N)cc(C(=O)N[C@H](c3ccc(Cl)c(Cl)c3)C3CC3)c2)c(C(F)(F)F)n1` [Example 161, (S)—N-(Cyclopropyl(3,4-dichlorophenyl)methyl)-3-(1-ethyl-3-(trifluoromethyl)-1H-pyrazol-4-yl)-5-((2-imino-3-methyl-2,3-dihydro-1H-imidazol-1-yl)methyl)benzamide], which GI50 ([1]; Homo sapiens, MV4-11, 168 h) is on record?
A: < 100 nM

Q: What about the Ki [2, 3] of the same compound?
A: < 0.1 nM

Q: Which results are given for `CCn1cc(-c2cc(Cn3ccn(C4CC4)c3=N)cc(C(=O)N[C@H](c3ccc(Cl)c(Cl)c3)C3CC3)c2)c(C(F)(F)F)n1` [Example 162, (S)—N-(Cyclopropyl(3,4-dichlorophenyl)methyl)-3-((3-cyclopropyl-2-imino-2,3-dihydro-1H-imidazol-1-yl)methyl)-5-(1-ethyl-3-(trifluoromethyl)-1H-pyrazol-4-yl)benzamide]?
A: GI50 ([1]; Homo sapiens, MV4-11, 168 h): 130 nM; Ki [2, 4]: < 0.1 nM

Q: How did the GI50 ([1]; Homo sapiens, MV4-11, 168 h) turn out when `Cc1cc([C@@H](NC(=O)c2cc(Cn3ccn(C)c3=N)cc(C3CCC3)c2)C2CC2)ccc1F` [Example 166, (S)-3-Cyclobutyl-N-(cyclopropyl(4-fluoro-3-methylphenyl)methyl)-5-((2-imino-3-methyl-2,3-dihydro-1H-imidazol-1-yl)methyl)benzamide] was run?
A: 360 nM

Q: What about the Ki [2, 4] of the same compound?
A: < 0.1 nM

Q: For `Cc1cc([C@H](C)NC(=O)c2cc(Cn3ccn(C)c3=N)cc(-c3ccc(F)cc3C(F)(F)F)c2F)ccc1F` [Example 172, (S)-2,4′-Difluoro-N-(1-(4-fluoro-3-methylphenyl)ethyl)-5-((2-imino-3-methyl-2,3-dihydro-1H-imidazol-1-yl)methyl)-2′-(trifluoromethyl)-[1,1′-biphenyl]-3-carboxamide], which GI50 ([1]; Homo sapiens, MV4-11, 168 h) is on record?
A: 160 nM

Q: And the Ki [2]?
A: < 0.1 nM

Q: How did the GI50 ([1]; Homo sapiens, MV4-11, 168 h) turn out when `Cc1cc([C@@H](NC(=O)c2cc(Cn3ccn(C)c3=N)cc(-c3ccc(F)cc3Cl)c2)C2CC2)ncc1F` [Example 174, (S)-2′-Chloro-N-(cyclopropyl(5-fluoro-4-methylpyridin-2-yl)methyl)-4′-fluoro-5-((2-imino-3-methyl-2,3-dihydro-1H-imidazol-1-yl)methyl)-[1,1′-biphenyl]-3-carboxamide] was run?
A: < 100 nM

Q: And the Ki [2, 4]?
A: < 0.1 nM

Q: With `Cc1cc([C@@H](NC(=O)c2cc(Cn3ccn(C)c3=N)cc(OC(F)(F)F)c2)C2CC2)ccc1F` [Example 179, (S)—N-(Cyclopropyl(4=fluoro-3-methylphenyl)methyl)-3-((2-imino-3-methyl-2,3-dihydro-1H-imidazol-1-yl)methyl)-5-(trifluoromethoxy)benzamide] as the compound, how does the GI50 ([1]; Homo sapiens, MV4-11, 168 h) read?
A: 230 nM

Q: And the Ki [2, 4]?
A: < 0.1 nM

Q: Which results are given for `Cc1cc([C@@H](NC(=O)c2cc(Cn3ccn(C)c3=N)cc(-c3ccc(F)cc3C#N)c2)C2CC2)ccc1F` [Example 185, (S)-2′-Cyano-N-(cyclopropyl(4-fluoro-3-methylphenyl)methyl)-4′-fluoro-5-((2-imino-3-methyl-2,3-dihydro-1H-imidazol-1-yl)methyl)-[1,1′-biphenyl]-3-carboxamide]?
A: GI50 ([1]; Homo sapiens, MV4-11, 168 h): 610 nM; Ki [2, 4]: < 0.1 nM

Reference: US10844044B2 (Vanderbilt University, priority 2018, dated 2020)
